Assay results taken from PMC7887271, “Fast acting allosteric phosphofructokinase inhibitors block trypanosome glycolysis and cure acute African trypanosomiasis in mice” (Nature Communications, 2021).
“And” between values parts separate entries of the source, which are not always exact repeats. Equal entries are not always repeated. Where two headings read alike, the source gives them in different places.

How the values were obtained:
[1] = target: T1, T. brucei phosphofructokinase (TbPFK) (Trypanosoma brucei brucei, UniProt O15648); experiment: ADP-Glo assay for measuring PFK inhibition; assay type: biochemical
T1 construct: made in house; host or cells: Escherichia coli C41 (pET28a, codon optimised gene)
T1 sequence (O15648 1-487): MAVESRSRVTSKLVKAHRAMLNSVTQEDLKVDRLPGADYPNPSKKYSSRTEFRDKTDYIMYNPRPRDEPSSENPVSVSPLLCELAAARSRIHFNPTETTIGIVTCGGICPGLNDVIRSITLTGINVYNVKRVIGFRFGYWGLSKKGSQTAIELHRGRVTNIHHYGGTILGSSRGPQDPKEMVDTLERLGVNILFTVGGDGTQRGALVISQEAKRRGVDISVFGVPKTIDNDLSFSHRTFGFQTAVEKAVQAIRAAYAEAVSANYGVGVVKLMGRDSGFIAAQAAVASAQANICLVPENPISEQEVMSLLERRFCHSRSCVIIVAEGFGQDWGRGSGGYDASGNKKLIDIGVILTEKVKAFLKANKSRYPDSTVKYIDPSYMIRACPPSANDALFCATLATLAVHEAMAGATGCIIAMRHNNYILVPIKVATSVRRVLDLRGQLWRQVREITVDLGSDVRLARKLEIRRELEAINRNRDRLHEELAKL
Procedure: Parasite enzyme kinetic data were measured using N-terminally His6-tagged TbPFK expressed in Escherichia coli C41 cells, using a codon optimised gene inserted in a pET28a vector (Supplementary Methods 1). Recombinant human PFKs were expressed in PFK-deficient Saccharomyces cerevisiae. PFK enzyme inhibition was measured using an ADP-Glo^TM assay (Promega) in a 96-well plate format (Supplementary Methods 2.1), using a Spectramax© M5 Multimode Plate Reader to measure luminescence values which were converted to ADP concentrations. IC50 values were determined using a sigmoidal curve fitting algorithm in Kaleidagraph 4 (Supplementary Fig. 1). Mode of action studies were carried out using a linked enzyme assay coupling the forward reaction of TbPFK to the M1 isoform of human pyruvate kinase followed by lactate dehydrogenase. The change in UV absorbance at 340 nm resulting from the conversion of NADH to NAD^+ was measured at 25 °C in ‘kinetic mode’ on a Spectramax© M5 Multimode plate reader. Initial velocities were plotted against substrate concentration to give curves showing non-competitive inhibition (Supplementary Fig. 2). An alternative linked enzyme assay was developed to control for the potential inhibitory activity of ATP on human PFK (Supplementary Methods 2.3).
The ADP-Glo™ end-point assay kit manufactured by Promega (cat. No. V9102) was used to measure ADP produced in the phosphofructokinase reaction:
Following this kinase reaction, the addition of a reagent results in any unused background ATP being removed and the reaction is sequestered. A second reagent is then added to convert the remaining ADP to ATP which is coupled to the luciferase/luciferin reaction to produce light. ‘Ultrapure’ ATP and ADP from Promega were used to reduce background noise. All reagents additional to those provided in the Promega ADP-Glo™ kit were purchased from Sigma-Aldrich.
The assay buffer comprised 50 mM triethanolamine (TEA), 10 mM MgCl2, 5 mM KCl, 0.1% w/v bovine serum albumin (BSA), 0.005% Tween-20, 1% DMSO, pH 7.4. A 3-fold serial dilution of 250x inhibitor stocks was carried out in 100% DMSO. 2 µl of these dilutions was added to 198 µl assay buffer and mixed well using a multichannel pipette. […] Concentration ranges of inhibitor compounds were 40 - 0.006 µM (final concentration, 1% DMSO). The PFK reaction in the presence of inhibitor was carried out using 10 µl of 1 µg/ml PFK (final concentration 0.4 µg/ml) which was added to 10 µl of the 1% DMSO inhibitor compound serial dilutions in a white, non-binding 96-well plate (Greiner BioOne 655904). CTCB-001 was used as a positive control at a final concentration of 5 µM. Assay buffer containing 1% DMSO was added instead of inhibitor compound for the negative control. The protein/inhibitor mixture was incubated for 10 minutes at room temperature (RT). The kinase reaction was started by adding a 5x ATP/F6P stock in assay buffer (final concentrations 0.5 mM F6P and 0.1 mM ATP). Plates were then sealed, centrifuged at 560 x g for 30 seconds and incubated at RT for 30 minutes. 25 µl of ‘ADP-Glo™ Reagent’ was then added to each well, mixed using a multichannel pipette and incubated at room temperature for 40 minutes. 50 µl of ‘Kinase Detection Reagent’ was added and incubated for 50 minutes at RT. The luminescence was recorded using a Spectramax© M5 Multi-mode Plate Reader (Molecular Devices) in single-point mode, with an integration time of 750 milliseconds. The luminescence values were converted to ADP concentration using a standard calibration curve for ADP. The resulting ADP concentrations were plotted as a function of inhibitor compound concentration using Kaleidagraph 4.0 software. The data were analysed using non-linear regression and a sigmoidal curve was fitted (Supplementary Figure 1) to determine the IC50. Kaleidagraph 4.0 uses the Levenberg-Marquardt algorithm in an iterative procedure to fit non-linear curves. […] The slope of the curve at the midpoint (m4) was set to 1.

[2] = tested on: bloodstream form of T. brucei strain Lister 427; experiment: T. b. brucei 427 growth inhibition assay (LILiT, Alamar Blue); assay type: cell-based; settings: Trypanosoma brucei
Procedure: The ‘in vitro’ parasite killing assay used the BSF of the non-human pathogenic subspecies T. b. brucei, strain Lister 427, cultured in HMI-9 medium containing 10% foetal bovine serum. A second cell line, T. b. brucei GVR35-Luc2 which constitutively expresses firefly luciferase was grown in Modified HMI-9 plus 20% foetal calf serum supplemented with 20% Serum Plus (Sigma) and 0.15 μg mL^−1 puromycin. Both strains of trypanosomes were cultured in T-25 vented cap flasks at 37 °C and 5% CO2.
The ‘in vitro’ parasite killing assay used the bloodstream-form of the non-human pathogenic subspecies T. b. brucei, strain Lister 427 (a gift from Professor Keith Matthews) which was cultured in HMI-9 medium containing 10% fetal bovine serum (FBS). A second cell line, T. b. brucei GVR35-Luc2 which constitutively expresses firefly luciferase (5) was grown in Modified HMI-9 plus 20% fetal calf serum (FCS) supplemented with 20% Serum Plus (Sigma) and 0.15 μg/ml puromycin as described previously (5). Both strains of trypanosomes were cultured in T-25 vented cap flasks at 37 °C and 5% CO2.
Growth inhibition tests of bloodstream-form T. b. brucei Lister 427 were carried out using the LILiT (long incubation low inoculation test) method (6). The parasites were cultured in complete HMI-9 medium containing 10% FBS in 96-well plates (Greiner Inc.) with approximately 2500 trypanosomes per well. A 3-fold dilution series (in the range from 45 µM – 0.020 µM) of the inhibitor compounds were prepared in the plate; the maximal concentration of DMSO was 0.45%. After 72 hours of incubation at 37 °C and 5% CO2, 50 µl Alamar Blue (0.2% diluted with Dulbecco’s-phosphate buffered saline (D-PBS, Sigma) was added to each well and plates were incubated at 37 °C and 5% CO2 for 4 hours. Fluorescence was read on the BMG multiplate reader using an excitation wavelength of 530 nm and an emission wavelength of 590 nm.

T. b. brucei GVR35-VSL2 = experiment: Mouse model of stage 1 and stage 2 HAT, bioluminescence imaging; assay type: in vivo, T. b. brucei in female CD-1 mice
Source text: An alternative mouse model for stage 1 (acute) and stage 2 (CNS-involved) HAT has been developed using a transgenic cell line derived from the pleiomorphic T. b. brucei GVR35 that expresses red-shifted firefly luciferase[17],[18]. […] T. b. brucei GVR35-infected mice present stage 1 disease by day 7 post infection with progression to stage 2 by day 21. By injecting the mouse with luciferin, the level of parasitaemia can be estimated in real time by monitoring the luminescence. Unlike monomorphic Lister 427 T. b. brucei, the pleiomorphic GVR35 T. b. brucei is controlled by a quorum-sensing mechanism resulting in the significant increase in survival time in mice and lower blood parasitaemia that occurs in waves. This extended survival time is also accompanied by parasite dissemination to multiple tissues and organs, including the skin, adipose tissue, lung and brain, with parasite loads increasing over time[17],[19].
For the mouse model of stage 1 and stage 2 HAT T. b. brucei GVR35-VSL2 parasites (3 × 10^4) were injected into a single donor female CD-1 mouse intraperitoneally. Once infection was established, starting on day 7 for stage 1 studies and day 21 for stage 2 studies, mice were either left untreated (n = 3) or dosed by oral gavage with CTCB compound in Cremophor EL: EtOH: D-PBS (30:10:60 v/v; n = 6). Progression of T. b. brucei GVR35-VSL2 infection was monitored primarily by in vivo bioluminescence imaging of infected mice using an IVIS Spectrum (PerkinElmer). For stage 1 studies, imaging of infected mice was performed before treatment on day 7 post infection and on days following the treatment (days 8, 9 and 14). Imaging on groups of three mice was performed 12 min after intraperitoneal injection of 150 mg kg^−1 D-luciferin (Promega) in PBS. For stage 2 studies, mice were imaged prior to treatment on day 21, and subsequently on days 22 and 23. On day 23, 24 h after the final dose, mice were sacrificed by cervical dislocation and perfused with PBS containing 15 g L^−1 glucose to allow ex vivo imaging of whole brains (Supplementary Figs. 12 and 13).
Female CD-1 (Charles River UK; 6-8 weeks old) mice were infected with 3 × 10^4 T. b. brucei GVR35-VSL2 bloodstream form parasites intraperitoneally. T. b. brucei GVR35-VSL2 expresses red-shifted luciferase and provides a better signal for imaging (13). Once infection was established, starting on day 7 for Stage 1 studies and day 21 for Stage 2 studies, mice were either left untreated (n=3) or dosed by oral gavage with CTCB compound in Cremophor EL: EtOH : D-PBS (30:10:60 v/v) (n = 6). Additional groups of mice (n=3) that received either a single intraperitoneal dose of diminazene aceturate (Sigma-Aldrich) at 40 mg/kg in sterile water or 0.1 ml melarsoprol gel (14) containing 3.6 mg melarsoprol, applied topically for 3 consecutive days, served as controls for Stage 1 and Stage 2 treatment studies, respectively.
Progression of T. b. brucei GVR35-VSL2 infection was monitored primarily by in vivo bioluminescence imaging of infected mice using an IVIS Spectrum (PerkinElmer) as described previously (5). For stage 1 studies, imaging of infected mice was performed before treatment on day 7 post-infection and in days following the treatment (days 8, 9 and 14). Imaging on groups of three mice was performed 12 minutes after intraperitoneal injection of 150 mg/kg D-luciferin (Promega) in PBS. For stage 2 studies, mice were imaged prior to treatment on day 21 and subsequently on days 22 and 23. On day 23, 24 hours after the final dose, mice were sacrificed by cervical dislocation and perfused with phosphate-buffered saline containing 15 g.L^−1 glucose to allow ex vivo imaging of whole brains. To this end, 100 μl D-luciferin was administered onto the brain surface and imaging performed immediately thereafter.

TbPFK = target: T2, TbPFK (Trypanosoma brucei brucei, UniProt O15648); settings: amidosulfonamide series; cited from earlier work
T2 construct: made in house; host or cells: Escherichia coli C41 (pET28a, codon optimised gene)
T2 sequence (O15648 1-487): T1 sequence (O15648 1-487)

[3] = ADP-Glo, mean ± SD, read-out: IC50 (µM) for inhibition of T. brucei phosphofructokinase (PFK IC50)
[4] = source data for Fig. 2 and Table 1, read-out: Average IC50
[5] = source data, read-out: IC50 (µM), single dated measurement
[6] = 72 h, read-out: EC50 (µM) in vitro parasite killing of bloodstream form T. brucei Lister 427 (Tbb EC50), 72 h, Alamar Blue
[7] = Average IC50 (µM), source data for Fig. 2 and Table 1
[8] = IC50 (µM), single dated measurement, source data

Row | Structure (SMILES) | IC50 [1, 4] | IC50 [1, 5] | EC50 [2, 6] | other results
1 | Clc1ccc(Cn2cnc3cnccc32)cc1Cl [CTCB107] | 0.6 µM | 0.6 µM | 8.5 ± 0.6 µM | IC50 [1, 3]: 1.14 ± 0.76 µM
2 | NCCn1ccc2c(ccn2Cc2ccc(Cl)c(Cl)c2)c1=O [CTCB-421] | 0.0335 µM | – | 0.54 ± 0.09 µM | IC50 ([1]; read-out: IC50 TbPFK): 0.03 µM
3 | CNC[C@@H](C)n1ccc2c(ccn2Cc2ccc(Cl)c(Cl)c2)c1=O [CTCB-481] | 0.12 µM | 0.122 µM | 0.15 ± 0.05 µM | –
4 | Nc1nc(N)nc(Nc2ccc([As]3SCC(CO)S3)cc2)n1 (stereo not shown) [Melarsoprol, melarsoprol, reference compound] | – | – | – | Whole body bioluminescence - Total Flux (T. b. brucei GVR35-VSL2; D21 pre-treatment, single mice): 9.807E+10 p/s and 6.826E+10 p/s and 5.548E+10 p/s; Side head bioluminescence - Total Flux (T. b. brucei GVR35-VSL2; D23, individual mice, Supp_Fig13): 2.996E+07 p/s and 8.365E+06 p/s and 9.321E+06 p/s; Ex vivo brain bioluminescence - Total Flux (T. b. brucei GVR35-VSL2; D23, single mice): 2.000E+06 p/s and 2.248E+06 p/s and 1.646E+06 p/s; Whole body bioluminescence - Total Flux (T. b. brucei GVR35-VSL2; D23 post-treatment, single mice): 1.530E+07 p/s and 2.111E+07 p/s and 2.252E+07 p/s
5 | O=C(Cc1ccc(Cl)c(Cl)c1)Nc1ccc(S(=O)(=O)Nc2ccon2)cc1 [CTCB-001] | – | – | 20.2 ± 2.1 µM | IC50 [1, 7]: 0.25 µM; IC50 [1, 8]: 194 nM (2×) and 221 nM and 189 nM and 230 nM and 436 nM and 223 nM and 261 nM (2×); IC50 (TbPFK): ~200 nM
6 | O=c1c2ccn(Cc3ccc(Cl)c(Cl)c3)c2ccn1CCO [CTCB-401] | – | – | 0.91 ± 0.04 µM | IC50 ([1]; read-out: IC50 TbPFK): 0.073 µM; EC50 ([2]; read-out: EC50 against the parasite): 0.9 µM
7 | CC(CN)n1ccc2c(ccn2Cc2ccc(Cl)c(Cl)c2)c1=O (stereo not shown) [CTCB-457] | 0.11 µM | 0.092 µM and 0.122 µM | 0.27 ± 0.01 µM | –
8 | O=c1[nH]ccc2c1ccn2Cc1ccc(Cl)c(Cl)c1 [CTCB-360] | 0.07 µM | 0.041 µM and 0.049 µM and 0.091 µM and 0.059 µM and 0.112 µM | 1.1 ± 0.1 µM | –
9 | Clc1ccc(Cn2ccc3cnccc32)cc1Cl [CTCB103] | – | – | 7.8 ± 0.1 µM | IC50 [1, 3]: 0.46 ± 0.03 µM
10 | Clc1ccc(Cn2ccnc2)cc1Cl [CTCB-12] | – | – | 8.9 ± 0.2 µM | L.E. ligand efficiency [1]: 0.51; IC50 [1, 7]: 0.83 µM; IC50 ([1]; IC50 (µM) for inhibition of T. brucei phosphofructokinase (PFK IC50), ADP-Glo, mean ± SD): 0.83 µM; IC50 [1, 8]: 0.83 µM
